Assay results published in patent US4148896A, “Antidepressant combination” (E. I. Du Pont de Nemours and Company, priority 1978, dated 1979).
Read-outs that look alike come from different tables or passages of the source.

Legend:
[1] = target: T1, mouse brain MAO (Mus musculus, UniProt Q64133); conditions: for % INHIBITION: substrate 5 HT
T1 sequence (Q64133 1-526): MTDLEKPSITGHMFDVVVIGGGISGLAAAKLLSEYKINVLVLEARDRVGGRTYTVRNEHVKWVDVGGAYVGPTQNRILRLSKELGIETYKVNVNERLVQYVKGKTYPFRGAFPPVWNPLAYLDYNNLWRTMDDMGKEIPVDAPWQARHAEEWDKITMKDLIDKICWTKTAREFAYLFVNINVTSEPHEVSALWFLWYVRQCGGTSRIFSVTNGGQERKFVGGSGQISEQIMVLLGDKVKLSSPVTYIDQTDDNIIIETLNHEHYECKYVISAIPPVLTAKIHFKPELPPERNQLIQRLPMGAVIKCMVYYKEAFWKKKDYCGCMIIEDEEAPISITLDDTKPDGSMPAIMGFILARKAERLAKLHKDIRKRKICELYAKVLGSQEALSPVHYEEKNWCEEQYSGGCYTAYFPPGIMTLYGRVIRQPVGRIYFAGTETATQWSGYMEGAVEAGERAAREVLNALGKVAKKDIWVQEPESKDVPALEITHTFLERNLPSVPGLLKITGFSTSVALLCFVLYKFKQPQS

[2] = target: T1, mouse brain MAO; assay: biochemical
[3] = system: tetrabenazine-induced sedation; assay: Mouse antidepressant (antitetrabenazine) test: prevention of tetrabenazine-induced ptosis and loss of exploratory activity; conditions: for ED50: Mus musculus, po; for No. of Mice Blocked, EXPLORATORY ACTIVITY / No. of Mice Blocked, PTOSIS: 4 h after molindone
[4] = in vivo; conditions: mouse, po
[5] = system: tryptamine-induced stereotypies and hind limb paralysis; assay: Tryptamine potentiation test; type: in vivo, mice; conditions: 2.5 mg/kg p.o., 4 Hrs., N=10
Experimental: […] […] (60 Mg/kg of tryptamine alone causes this syndrome but it lasts for less than a minute, usually only a few seconds.) The data were analyzed quantally and ED50's calculated.

[6] = 1 mg/kg oral (free base), 1 h, N=10
[7] = 1 mg/kg oral (free base), 2 h, N=10
[8] = 1 mg/kg oral (free base), 4 h, N=10
[9] = 3 mg/kg oral (free base), 1 h, N=10
[10] = 3 mg/kg oral (free base), 2 h, N=10
[11] = 3 mg/kg oral (free base), 4 h, N=10
[12] = 9 mg/kg oral (free base), 1 h, N=10
[13] = 9 mg/kg oral (free base), 2 h, N=10
[14] = 9 mg/kg oral (free base), 4 h, N=10
[15] = 13 mg/kg oral (free base), 1 h, N=20
[16] = 13 mg/kg oral (free base), 2 h, N=20
[17] = 13 mg/kg oral (free base), 3 h, N=20
[18] = 13 mg/kg oral (free base), 4 h, N=20
[19] = 13 mg/kg oral (free base), 6 h, N=20
[20] = 13 mg/kg oral (free base), 24 h, N=20
[21] = 27 mg/kg oral (free base), 1 h, N=10
[22] = 27 mg/kg oral (free base), 2 h, N=10
[23] = 27 mg/kg oral (free base), 4 h, N=10
[24] = 81 mg/kg oral (free base), 1 h, N=10
[25] = 81 mg/kg oral (free base), 2 h, N=10
[26] = 81 mg/kg oral (free base), 4 h, N=10
[27] = molindone 1.5 mg/kg oral alone, N=20
[28] = molindone 4.5 mg/kg oral alone, N=20
[29] = molindone 13.5 mg/kg oral alone, N=20
[30] = molindone 40.5 mg/kg oral alone, N=20
[31] = molindone alone, oral, 4 h, free base basis, N=20 (Table 2)

Q: With `CCc1c(C)[nH]c2c1C(=O)C(CN1CCOCC1)CC2` (stereo not shown) [Molindone, 3-ethyl-6,7-dihydro-2-methyl-5-(morpholinomethyl)indol-4-(5H)-one] as the compound, how does the “MAO inhibition (in words)” value ([1]; at the high concentration of 1×10^-3 M) read?
A: virtually inactive

Q: And the “% INHIBITION” value ([1]; final conc. 10^-3 m/l)?
A: 14%

Q: And the “% INHIBITION” value ([1]; final conc. 10^-4 m/l)?
A: 1%

Q: What about the “% INHIBITION” value ([1]; final conc. 10^-5 m/l) of the same compound?
A: 1%

Q: What about the “% INHIBITION” value ([1]; final conc. 10^-6 m/l) of the same compound?
A: 0%

Q: What about the IC50 [2] of the same compound?
A: > 1000 µM

Q: And the “NUMBER OF MICE BLOCKED, EXPLORATORY ACTIVITY” value [3, 6]?
A: 0

Q: What about the “NUMBER OF MICE BLOCKED, PTOSIS” value [3, 6] of the same compound?
A: 0

Q: And the “NUMBER OF MICE BLOCKED, EXPLORATORY ACTIVITY” value [3, 7]?
A: 0

Q: What about the “NUMBER OF MICE BLOCKED, PTOSIS” value [3, 7] of the same compound?
A: 0

Q: What about the “NUMBER OF MICE BLOCKED, EXPLORATORY ACTIVITY” value [3, 8] of the same compound?
A: 0

Q: What about the “NUMBER OF MICE BLOCKED, PTOSIS” value [3, 8] of the same compound?
A: 0

Q: What about the “NUMBER OF MICE BLOCKED, EXPLORATORY ACTIVITY” value [3, 9] of the same compound?
A: 0

Q: What about the “NUMBER OF MICE BLOCKED, PTOSIS” value [3, 9] of the same compound?
A: 0

Q: What about the “NUMBER OF MICE BLOCKED, EXPLORATORY ACTIVITY” value [3, 10] of the same compound?
A: 0

Q: What about the “NUMBER OF MICE BLOCKED, PTOSIS” value [3, 10] of the same compound?
A: 1

Q: What about the “NUMBER OF MICE BLOCKED, EXPLORATORY ACTIVITY” value [3, 11] of the same compound?
A: 0

Q: What about the “NUMBER OF MICE BLOCKED, PTOSIS” value [3, 11] of the same compound?
A: 0

Q: What about the “NUMBER OF MICE BLOCKED, EXPLORATORY ACTIVITY” value [3, 12] of the same compound?
A: 0

Q: What about the “NUMBER OF MICE BLOCKED, PTOSIS” value [3, 12] of the same compound?
A: 0

Q: What about the “NUMBER OF MICE BLOCKED, EXPLORATORY ACTIVITY” value [3, 13] of the same compound?
A: 3

Q: And the “NUMBER OF MICE BLOCKED, PTOSIS” value [3, 13]?
A: 5

Q: What about the “NUMBER OF MICE BLOCKED, EXPLORATORY ACTIVITY” value [3, 14] of the same compound?
A: 5

Q: And the “NUMBER OF MICE BLOCKED, PTOSIS” value [3, 14]?
A: 7

Q: And the “NUMBER OF MICE BLOCKED, EXPLORATORY ACTIVITY” value [3, 15]?
A: 0

Q: And the “NUMBER OF MICE BLOCKED, PTOSIS” value [3, 15]?
A: 0

Q: And the “NUMBER OF MICE BLOCKED, EXPLORATORY ACTIVITY” value [3, 16]?
A: 6

Q: What about the “NUMBER OF MICE BLOCKED, PTOSIS” value [3, 16] of the same compound?
A: 8

Q: And the “NUMBER OF MICE BLOCKED, EXPLORATORY ACTIVITY” value [3, 17]?
A: 16

Q: What about the “NUMBER OF MICE BLOCKED, PTOSIS” value [3, 17] of the same compound?
A: 19

Q: What about the “NUMBER OF MICE BLOCKED, EXPLORATORY ACTIVITY” value [3, 18] of the same compound?
A: 19

Q: And the “NUMBER OF MICE BLOCKED, PTOSIS” value [3, 18]?
A: 20

Q: And the “NUMBER OF MICE BLOCKED, EXPLORATORY ACTIVITY” value [3, 19]?
A: 20

Q: And the “NUMBER OF MICE BLOCKED, PTOSIS” value [3, 19]?
A: 20

Q: What about the “NUMBER OF MICE BLOCKED, EXPLORATORY ACTIVITY” value [3, 20] of the same compound?
A: 6

Q: And the “NUMBER OF MICE BLOCKED, PTOSIS” value [3, 20]?
A: 10

Q: And the “NUMBER OF MICE BLOCKED, EXPLORATORY ACTIVITY” value [3, 21]?
A: 0

Q: And the “NUMBER OF MICE BLOCKED, PTOSIS” value [3, 21]?
A: 0

Q: And the “NUMBER OF MICE BLOCKED, EXPLORATORY ACTIVITY” value [3, 22]?
A: 10

Q: What about the “NUMBER OF MICE BLOCKED, PTOSIS” value [3, 22] of the same compound?
A: 10

Q: And the “NUMBER OF MICE BLOCKED, EXPLORATORY ACTIVITY” value [3, 23]?
A: 10

Q: And the “NUMBER OF MICE BLOCKED, PTOSIS” value [3, 23]?
A: 10

Q: And the “NUMBER OF MICE BLOCKED, EXPLORATORY ACTIVITY” value [3, 24]?
A: 0

Q: And the “NUMBER OF MICE BLOCKED, PTOSIS” value [3, 24]?
A: 0

Q: What about the “NUMBER OF MICE BLOCKED, EXPLORATORY ACTIVITY” value [3, 25] of the same compound?
A: 10

Q: And the “NUMBER OF MICE BLOCKED, PTOSIS” value [3, 25]?
A: 10

Q: What about the “NUMBER OF MICE BLOCKED, EXPLORATORY ACTIVITY” value [3, 26] of the same compound?
A: 10

Q: And the “NUMBER OF MICE BLOCKED, PTOSIS” value [3, 26]?
A: 10

Q: And the ED50 ([3]; 1 h, read-out: ED50, EXPLORATORY ACTIVITY)?
A: > 81 mg/kg

Q: What about the ED50 ([3]; 1 h, read-out: ED50, PTOSIS) of the same compound?
A: > 81 mg/kg

Q: And the ED50 ([3]; 2 h, read-out: ED50, EXPLORATORY ACTIVITY)?
A: 11.2 mg/kg

Q: And the ED50 ([3]; 2 h, read-out: ED50, PTOSIS)?
A: 8.5 mg/kg

Q: And the ED50 ([3]; 4 h, read-out: ED50, EXPLORATORY ACTIVITY)?
A: 9 mg/kg

Q: And the ED50 ([3]; 4 h, read-out: ED50, PTOSIS)?
A: 7.2 mg/kg

Q: What about the “No. of Mice Blocked, EXPLORATORY ACTIVITY” value [3, 27] of the same compound?
A: 0

Q: And the “No. of Mice Blocked, PTOSIS” value [3, 27]?
A: 1

Q: What about the “No. of Mice Blocked, EXPLORATORY ACTIVITY” value [3, 28] of the same compound?
A: 2

Q: And the “No. of Mice Blocked, PTOSIS” value [3, 28]?
A: 5

Q: What about the “No. of Mice Blocked, EXPLORATORY ACTIVITY” value [3, 29] of the same compound?
A: 12

Q: And the “No. of Mice Blocked, PTOSIS” value [3, 29]?
A: 18

Q: And the “No. of Mice Blocked, EXPLORATORY ACTIVITY” value [3, 30]?
A: 20

Q: And the “No. of Mice Blocked, PTOSIS” value [3, 30]?
A: 20

Q: And the “ED50, EXPLORATORY ACTIVITY, Molindone” value [3, 31]?
A: 10.8 mg/kg

Q: What about the “ED50, PTOSIS, Molindone” value [3, 31] of the same compound?
A: 6.4 mg/kg

Q: And the “Peak time (antitetrabenazine activity)” value ([3]; oral, mice)?
A: 4 to 6 h

Q: And the LD50 at 24 h [4]?
A: 440 mg/kg

Q: And the “HEAD TWITCH (mice responding)” value [5]?
A: 0
